Measured values from patent US20180099931A1 (AbbVie S.à.r.l., priority 2016, published 2018).
Where two headings read alike, the source gives them in different places.

Biological target: T1, F508delCFTR (Homo sapiens, UniProt P13569, DEL508-508)
T1 construct: expressed in transfected cells; host or cells: CFBE41o- human lung-derived epithelial cells (CFBE4lo-F508delCFTR-HRP), doxycycline-inducible
Assay: Cell Surface Expression-Horse Radish Peroxidase (CSE-HRP) Assay;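 for Maximum % activity (with co-corrector): co-corrector and positive control are both the same reference corrector at 2 µM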;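 for Maximum % activity (without co-corrector): percent of the 2 µM on-plate positive control corrector response above DMSO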
Assay type: cell-based
Conditions: CSE-HRP; for Maximum % activity (with co-corrector): with co-corrector (2 μM); for Maximum % activity (with co-corrector) / Emax: maximum at any tested concentration, normalized to on-plate positive control; for Emax: without co-corrector, read-out: Maximum % activity (without co-corrector)

[1] = test compound without co-corrector, read-out: EC50 (without co-corrector)
[2] = with co-corrector (2 μM of 3-[(2R,4R)-4-({[1-(2,2-difluoro-1,3-benzodioxol-5-yl)cyclopropyl]carbonyl}amino)-7-methoxy-3,4-dihydro-2H-chromen-2-yl]benzoic acid), read-out: EC50 (with co-corrector)

T1 sequence (P13569 with tags, fused parts or gaps DEL508-508): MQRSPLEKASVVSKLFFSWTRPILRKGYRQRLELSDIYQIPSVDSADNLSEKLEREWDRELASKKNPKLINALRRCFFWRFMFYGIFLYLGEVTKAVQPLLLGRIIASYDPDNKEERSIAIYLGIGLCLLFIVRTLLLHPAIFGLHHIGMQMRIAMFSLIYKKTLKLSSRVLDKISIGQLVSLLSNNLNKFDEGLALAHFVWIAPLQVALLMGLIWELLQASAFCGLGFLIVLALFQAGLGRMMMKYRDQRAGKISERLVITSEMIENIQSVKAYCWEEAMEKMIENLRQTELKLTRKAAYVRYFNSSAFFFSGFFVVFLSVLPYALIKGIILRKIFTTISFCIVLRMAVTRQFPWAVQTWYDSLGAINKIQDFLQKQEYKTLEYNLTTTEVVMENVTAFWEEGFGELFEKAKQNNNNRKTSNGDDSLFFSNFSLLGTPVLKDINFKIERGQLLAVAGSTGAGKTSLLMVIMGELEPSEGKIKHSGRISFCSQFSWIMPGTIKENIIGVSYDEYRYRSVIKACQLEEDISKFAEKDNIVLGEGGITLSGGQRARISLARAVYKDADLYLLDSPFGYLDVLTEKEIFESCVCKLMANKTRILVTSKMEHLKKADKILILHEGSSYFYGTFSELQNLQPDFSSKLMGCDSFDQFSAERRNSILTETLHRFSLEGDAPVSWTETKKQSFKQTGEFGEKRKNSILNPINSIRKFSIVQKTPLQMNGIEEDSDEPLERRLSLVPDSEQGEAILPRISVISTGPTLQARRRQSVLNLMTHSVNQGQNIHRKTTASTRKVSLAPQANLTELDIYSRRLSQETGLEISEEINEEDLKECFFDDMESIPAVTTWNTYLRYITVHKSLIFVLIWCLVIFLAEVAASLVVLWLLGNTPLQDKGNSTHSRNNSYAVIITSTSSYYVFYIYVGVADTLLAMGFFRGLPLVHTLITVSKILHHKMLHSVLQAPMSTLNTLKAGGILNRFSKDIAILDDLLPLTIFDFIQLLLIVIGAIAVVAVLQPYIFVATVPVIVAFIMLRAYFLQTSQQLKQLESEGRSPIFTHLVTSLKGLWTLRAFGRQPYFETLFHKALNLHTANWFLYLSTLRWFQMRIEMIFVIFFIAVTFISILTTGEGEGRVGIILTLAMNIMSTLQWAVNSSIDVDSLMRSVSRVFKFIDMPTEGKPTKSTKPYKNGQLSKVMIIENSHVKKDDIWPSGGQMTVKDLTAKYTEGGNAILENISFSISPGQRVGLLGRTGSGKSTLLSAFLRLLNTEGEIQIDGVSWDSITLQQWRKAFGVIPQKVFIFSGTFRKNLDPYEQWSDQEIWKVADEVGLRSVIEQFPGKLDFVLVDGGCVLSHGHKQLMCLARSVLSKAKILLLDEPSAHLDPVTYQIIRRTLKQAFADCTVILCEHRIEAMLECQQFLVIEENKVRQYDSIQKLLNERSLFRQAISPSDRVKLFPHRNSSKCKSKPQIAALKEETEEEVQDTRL

Row | SMILES | EC50 [1] [nM] | EC50 [2] [nM] | Maximum % activity (with co-corrector) | Emax [%]
1 | COc1cc(C(F)(F)F)ccc1CN[C@H]1[C@H](C(C)(C)C)[C@@H](C(=O)O)N(C(=O)[C@@H]2CCCCO2)[C@H]1c1cccnc1OC [II-92] | 1000 to 10000 | 1000 to 10000 | +++ (≥350) | 100 to 200
2 | COc1ccc(C(F)(F)F)cc1CN[C@H]1[C@H](C(C)(C)C)[C@@H](C(=O)O)N(C(=O)C2CCCCC2)[C@H]1c1cccnc1C [II-93] | 1000 to 10000 | 1000 to 10000 | +++ (≥350) | 100 to 200
3 | COc1cc(C(F)(F)F)ccc1CN[C@H]1[C@H](C(C)(C)C)[C@@H](C(=O)O)N(C(=O)C2CCCCC2)[C@H]1c1cccnc1C [II-94] | 1000 to 10000 | 1000 to 10000 | +++ (≥350) | 100 to 200
4 | COc1ccc(Cl)cc1CN[C@H]1[C@H](C(C)(C)C)[C@@H](C(=O)O)N(C(=O)C2CCCCC2)[C@H]1c1cccnc1C [II-95] | 1000 to 10000 | 1000 to 10000 | +++ (≥350) | < 100
5 | COc1cc(Cl)ccc1CN[C@H]1[C@H](C(C)(C)C)[C@@H](C(=O)O)N(C(=O)C2CCCCC2)[C@H]1c1cccnc1C [II-96] | 1000 to 10000 | 1000 to 10000 | +++ (≥350) | 100 to 200
6 | COc1ccc(Cl)cc1CN[C@H]1[C@H](C(C)(C)C)[C@@H](C(=O)O)N(C(=O)C2CCCCC2)[C@H]1c1ccccc1 [II-97] | 1000 to 10000 | < 1000 | +++ (≥350) | > 200
7 | COc1cc(Cl)ccc1CN[C@H]1[C@H](C(C)(C)C)[C@@H](C(=O)O)N(C(=O)C2CCCCC2)[C@H]1c1ccccc1 [II-99] | 1000 to 10000 | 1000 to 10000 | +++ (≥350) | 100 to 200
8 | CC(C)(C)[C@H]1[C@H](NCc2coc3ccccc23)[C@H](c2ccccc2)N(C(=O)C2CCCCC2)[C@@H]1C(=O)O [II-100] | 1000 to 10000 | 1000 to 10000 | ++ (≥150 and <350) | < 100
9 | COc1cc(C(C)(C)C)ccc1CN[C@H]1[C@H](C(C)(C)C)[C@@H](C(=O)O)N(C(=O)C2CCCCC2)[C@H]1c1cccnc1OC [II-101] | 1000 to 10000 | 1000 to 10000 | +++ (≥350) | 100 to 200
10 | COc1cc(C(C)(C)C)ccc1CN[C@H]1[C@H](C(C)(C)C)[C@@H](C(=O)O)N(C(=O)C2CCCCC2)[C@H]1c1cccnc1N(C)C [II-102] | 1000 to 10000 | < 1000 | +++ (≥350) | 100 to 200
11 | COc1cc(C(C)(C)C)ccc1CN[C@H]1[C@H](C(C)(C)C)[C@@H](C(=O)O)N(C(=O)C2CCCCC2)[C@H]1c1ccccc1 [II-103] | 1000 to 10000 | 1000 to 10000 | +++ (≥350) | 100 to 200
12 | COc1cc(CN[C@H]2[C@H](C(C)(C)C)[C@@H](C(=O)O)N(C(=O)C3CCCCC3)[C@H]2c2ccccc2)c(F)cc1Cl [II-104] | 1000 to 10000 | 1000 to 10000 | ++ (≥150 and <350) | < 100
13 | CC(C)(C)[C@H]1[C@H](NCc2cc(Cl)ccc2Cl)[C@H](c2ccccc2)N(C(=O)C2CCCCC2)[C@@H]1C(=O)O [II-105] | 1000 to 10000 | 1000 to 10000 | +++ (≥350) | < 100
14 | COc1ccc(F)c(CN[C@H]2[C@H](C(C)(C)C)[C@@H](C(=O)O)N(C(=O)C3CCCCC3)[C@H]2c2ccccc2)c1 [II-106] | 1000 to 10000 | 1000 to 10000 | ++ (≥150 and <350) | < 100
15 | CC(C)(C)[C@H]1[C@H](NCc2cc(Cl)ccc2OC(F)F)[C@H](c2ccccc2)N(C(=O)C2CCCCC2)[C@@H]1C(=O)O [II-107] | < 1000 | 1000 to 10000 | +++ (≥350) | < 100
16 | CC(C)(C)[C@H]1[C@H](NCc2cc(C(F)(F)F)cc(C(F)(F)F)c2)[C@H](c2ccccc2)N(C(=O)C2CCCCC2)[C@@H]1C(=O)O [II-108] | 1000 to 10000 | 1000 to 10000 | +++ (≥350) | < 100
17 | COc1ccc(CN[C@H]2[C@H](C(C)(C)C)[C@@H](C(=O)O)N(C(=O)C3CCCCC3)[C@H]2c2ccccc2)c(C(F)(F)F)c1 [II-109] | < 1000 | 1000 to 10000 | ++ (≥150 and <350) | < 100
18 | COc1ccc(Br)c(CN[C@H]2[C@H](C(C)(C)C)[C@@H](C(=O)O)N(C(=O)C3CCCCC3)[C@H]2c2ccccc2)c1 [II-110] | 1000 to 10000 | 1000 to 10000 | +++ (≥350) | < 100

Row | SMILES | EC50 [1] [nM] | EC50 [2] [nM] | Maximum % activity (with co-corrector) | Emax [%]
19 | CC(C)(C)[C@H]1[C@H](NCc2cc(Cl)cc(Cl)c2)[C@H](c2ccccc2)N(C(=O)C2CCCCC2)[C@@H]1C(=O)O [II-111] | 1000 to 10000 | 1000 to 10000 | ++ (≥150 and <350) | < 100
20 | COc1cc(CN[C@H]2[C@H](C(C)(C)C)[C@@H](C(=O)O)N(C(=O)C3CCCCC3)[C@H]2c2ccccc2)ccc1F [II-112] | > 10000 | 1000 to 10000 | ++ (≥150 and <350) | < 100
21 | CC(C)(C)[C@H]1[C@H](NCc2ccc(Cl)cc2Cl)[C@H](c2ccccc2)N(C(=O)C2CCCCC2)[C@@H]1C(=O)O [II-113] | < 1000 | 1000 to 10000 | +++ (≥350) | < 100
22 | COc1cc(CN[C@H]2[C@H](C(C)(C)C)[C@@H](C(=O)O)N(C(=O)C3CCCCC3)[C@H]2c2ccccc2)c(Br)cc1F [II-114] | < 1000 | 1000 to 10000 | +++ (≥350) | < 100
23 | CC(C)(C)[C@H]1[C@H](NCc2cc(F)cc(F)c2)[C@H](c2ccccc2)N(C(=O)C2CCCCC2)[C@@H]1C(=O)O [II-115] | > 10000 | 1000 to 10000 | ++ (≥150 and <350) | < 100
24 | COc1cc2c(cc1CN[C@H]1[C@H](C(C)(C)C)[C@@H](C(=O)O)N(C(=O)C3CCCCC3)[C@H]1c1ccccc1)OCO2 [II-116] | 1000 to 10000 | 1000 to 10000 | +++ (≥350) | 100 to 200
25 | Cc1ccc(C)c(CN[C@H]2[C@H](C(C)(C)C)[C@@H](C(=O)O)N(C(=O)C3CCCCC3)[C@H]2c2ccccc2)c1 [II-117] | 1000 to 10000 | 1000 to 10000 | +++ (≥350) | < 100
26 | COc1cc(F)ccc1CN[C@H]1[C@H](C(C)(C)C)[C@@H](C(=O)O)N(C(=O)C2CCCCC2)[C@H]1c1ccccc1 [II-118] | 1000 to 10000 | 1000 to 10000 | +++ (≥350) | 100 to 200
27 | CCOc1ccc(CN[C@H]2[C@H](C(C)(C)C)[C@@H](C(=O)O)N(C(=O)C3CCCCC3)[C@H]2c2ccccc2)c(C)c1 [II-119] | 1000 to 10000 | 1000 to 10000 | ++ (≥150 and <350) | < 100
28 | COc1ccc(C(F)(F)F)cc1CN[C@H]1[C@H](C(C)(C)C)[C@@H](C(=O)O)N(C(=O)[C@@H](C)OC)[C@H]1c1ccccc1 [II-120] | 1000 to 10000 | 1000 to 10000 | +++ (≥350) | 100 to 200
29 | CC(C)(C)c1cccc(CN[C@H]2[C@H](C(C)(C)C)[C@@H](C(=O)O)N(C(=O)C3CCCCC3)[C@H]2c2ccccc2)c1 [II-121] | 1000 to 10000 | 1000 to 10000 | ++ (≥150 and <350) | < 100
30 | CC(C)(C)[C@H]1[C@H](NCc2cccc(C(F)(F)F)c2)[C@H](c2ccccc2)N(C(=O)C2CCCCC2)[C@@H]1C(=O)O [II-122] | 1000 to 10000 | 1000 to 10000 | ++ (≥150 and <350) | < 100
31 | COc1cc(C)ccc1CN[C@H]1[C@H](C(C)(C)C)[C@@H](C(=O)O)N(C(=O)[C@@H]2CCCCO2)[C@H]1c1cccnc1OC [II-123] | 1000 to 10000 | 1000 to 10000 | ++ (≥150 and <350) | < 100
32 | COc1cc(C(C)(C)C)ccc1CN[C@H]1[C@H](C(C)(C)C)[C@@H](C(=O)O)N(C(=O)C2CCCCC2)[C@H]1c1ccccc1OC(F)F [II-124] | < 1000 | < 1000 | +++ (≥350) | 100 to 200
33 | COc1cc2c(cc1CN[C@H]1[C@H](C(C)(C)C)[C@@H](C(=O)O)N(C(=O)C3CCCCC3)[C@H]1c1ccccc1)CCCC2 [II-125] | 1000 to 10000 | < 1000 | +++ (≥350) | > 200
34 | CCOc1ccc(Br)cc1CN[C@H]1[C@H](C(C)(C)C)[C@@H](C(=O)O)N(C(=O)C2CCCCC2)[C@H]1c1ccccc1 [II-126] | 1000 to 10000 | 1000 to 10000 | +++ (≥350) | 100 to 200
35 | COc1ccc(CN[C@H]2[C@H](C(C)(C)C)[C@@H](C(=O)O)N(C(=O)C3CCCCC3)[C@H]2c2ccccc2)cc1C(F)(F)F [II-127] | 1000 to 10000 | 1000 to 10000 | ++ (≥150 and <350) | < 100
36 | COc1cc(F)c(F)cc1CN[C@H]1[C@H](C(C)(C)C)[C@@H](C(=O)O)N(C(=O)C2CCCCC2)[C@H]1c1ccccc1 [II-128] | 1000 to 10000 | 1000 to 10000 | +++ (≥350) | 100 to 200
